Test results from patent US20190247353A1, “ACNE STRAIN-SELECTIVE ANTIBACTERIAL AGENT” (MOMOTANI JUNTENKAN CO., LTD., priority 2016, published 2019).
In brackets after ≈: the same amount, converted by molar mass. Where two headings read alike, the source gives them in different places.

How the values were obtained:
Type in all cases: cell-based, Propionibacterium acnes
[1] = tested on: HL053PA1 strain (RT4) and HL043PA1 strain (RT5) versus HL110PA3 strain (RT6); assay: Strain-selective antibacterial activity (average of MICRT6/MICRT4 and MICRT6/MICRT5); conditions: for Strain-selective antibacterial activity over the tested pH range, in words: tested pH range pH 5 to 7
Source text: (§1) Herein, “acne strain-selective antibacterial activity” or “strain-selective antibacterial activity” means an index indicating better inhibition of growth of a dominant strain in acne patients compared to that of a dominant strain in healthy subjects. It is expressed by the average value of the values (MICRT6/MICRT4, and MICRT6/MICRTS) obtained by dividing the minimum inhibitory concentration (MIC) of an object substance with respect to the dominant strain in healthy subjects (RT6 strain) (MICRT6) respectively by the MIC of the object substance with respect to the dominant strain in acne patients (RT4 strain) (MICRT4), and by the MIC of the object substance with respect to the dominant strain in acne patients (RT5 strain) (MICRT5).
(§2) The strain-selective antibacterial activity of each test substance (Table 2, right-most column) was evaluated based on the following rating criteria (Table 3). When the strain-selective antibacterial activity is indicated by a numerical range, the rating was based on the minimum value thereof.

HL043PA1 strain (RT5) = assay: MIC by broth microdilution method, HL043PA1 strain; conditions: for MIC: Cutibacterium acnes, read-out: MIC against acne bacterium strain HL043PA1 strain (RT5)
Experimental: (§3) An MIC is measured herein according to the broth microdilution method which is the standard method of Japanese Society of Chemotherapy.
(§4) The antibacterial activity of a test substance was determined based on the minimum inhibitory concentration (MIC). An MIC was measured according to the broth microdilution method which is the standard method of Japanese Society of Chemotherapy.
(§5) One-loopful of each acne bacterium strain listed in Table 1 was scraped off and inoculated into 5 mL of a GAM broth slant agar medium (pH 7.0, Nissui Pharmaceutical Co., Ltd.).
The inoculated acne bacterium strain was precultured at 37° C. in a nitrogen atmosphere (anaerobic condition) for 48 hours. […]
(§6) Each fatty acid (Tokyo Chemical Industry Co., Ltd.) listed in Table 2 was dissolved in dimethylsulfoxide (DMSO) as a solvent such that the concentration became 10,000 μg/mL, and used as a test substance.
(§7) Each of strain suspensions (5.0×10^4 cfu/mL) was aliquoted in a 96-well round bottom microplate, each of the test substance (fatty acid concentration 10,000 μg/mL) was added at a 1/10 volume to the aliquot and mixed to prepare measurement samples (fatty acid concentration: 1,000 μg/mL). Measurement samples in 2-fold dilution series were prepared using the strain suspension (fatty acid concentration from 0.48 to 1,000 μg/mL).
(§8) The measurement samples were incubated under an anaerobic condition at 37° C. for 2 days. The presence or absence of a precipitation of test microbial cells after the incubation was examined and the minimum concentration at which the precipitation of microbial cells […] was regarded as the MIC (μg/mL) of the test substance against the acne bacterium strain.

HL056PA1 strain (RT4) = assay: MIC by broth microdilution method, HL056PA1 strain; conditions: Cutibacterium acnes, PA1; Example 6, method as Example 1; read-out: MIC against acne bacterium strain HL056 PA1 strain (RT4)
Experimental: as §4
(§9) Each of strain suspensions (5.0×10^4 cfu/mL) was aliquoted in a 96-well round bottom microplate, each of the test substance (fatty acid concentration 10,000 μg/mL) was added at a 1/10 volume to the aliquot and mixed to prepare measurement samples (fatty acid concentration: 1,000 μg/mL). Measurement samples in 2-fold dilution series were prepared using the strain suspension (fatty acid concentration from 0.48 to 1,000 μg/mL). Using a sample containing only the solvent (DMSO) as a control, it was confirmed that the influence of the solvent on the growth of each strain could be neglected.
as §8
(§10) The MIC of each of the following test substances was measured substantially in the same manner as in Example 1 (Table 12) except that a suspension of test bacterium strains was prepared using the dominant strain in acne patients (HL005PA1 strain (HM-492^†, RT4 strain), […] (HM-524^†, RT4 strain), HL045PA1 strain (HM-516^†, RT4 strain), or HL043PA2 strain (HM-514^†, RT5 strain)), or the dominant strain in healthy subjects (HL110PA4 strain (HM-555^†, RT6 strain) instead of the dominant strains in acne patients (HL053PA1 strain (RT4 strain) and HL043PA1 strain (RT5 strain)) and the dominant strain in healthy subjects (HL110PA3 strain (RT6 strain) used in Examples 1 to 3.

HL043PA2 strain (RT5) = assay: MIC by broth microdilution method, HL043PA2 strain; conditions: Cutibacterium acnes; Example 6, method as Example 1; read-out: MIC against acne bacterium strain HL043 PA2 strain (RT5)
Experimental: as §4, §9, §8, §10

HL110PA4 strain (RT6) = assay: MIC by broth microdilution method, HL110PA4 strain; conditions: Cutibacterium acnes; Example 6, method as Example 1; read-out: MIC against acne bacterium strain HL110 PA4 strain (RT6)
Experimental: as §4, §9, §8, §10

HL053PA1 strain (RT4) = assay: MIC by broth microdilution method, HL053PA1 strain; conditions: for MIC: Cutibacterium acnes, read-out: MIC against acne bacterium strain HL053PA1 strain (RT4)
Experimental: as §3, §4, §5
The inoculated acne bacterium strain was precultured at 37° C. in a nitrogen atmosphere (anaerobic condition) for 48 hours. The precultured microbial cells were diluted in a modified GAM broth liquid medium (pH 6.0) to a concentration of 5.0×10^4 cfu/mL (viable cell count per OD660=1 is 2.0×10^9 cfu/mL), to prepare strain suspensions.
as §6, §7
[…] The presence or absence of a precipitation of test microbial cells after the incubation was examined and the minimum concentration at which the precipitation of microbial cells […] was regarded as the MIC (μg/mL) of the test substance against the acne bacterium strain.

[2] = tested on: HL005PA1, HL056PA1, HL045PA1 (RT4) and HL043PA2 (RT5) strains versus HL110PA4 strain (RT6); assay: Strain-selective antibacterial activity against different acne bacterium strains (Example 6); conditions: Example 6 strains
Source text: as §1, §2, §10

[3] = 48 h, pH 6.0 modified GAM broth, anaerobic, 37° C., 2 days (Example 1)
[4] = 72 h, pH 5.0, estimated from the growth on day 3
[5] = pH 5.0, estimated from the growth on day 3

SMILES | Strain-selective antibacterial activity ([1]; pH 5.5) | Strain-selective antibacterial activity at each pH ([1]; pH 5.5 (summary Table 10)) | Strain-selective antibacterial activity ([1]; pH 6.0 (Example 1)) | Strain-selective antibacterial activity at each pH ([1]; pH 6 (summary Table 10)) | Strain-selective antibacterial activity ([1]; pH 6.5) | Strain-selective antibacterial activity at each pH ([1]; pH 6.5 (summary Table 10)) | Strain-selective antibacterial activity ([1]; pH 7.0) | Strain-selective antibacterial activity at each pH ([1]; pH 7 (summary Table 10)) | MIC (HL043PA1 strain (RT5); [3]) [µg/mL] | MIC (HL043PA1 strain (RT5); [4]) [µg/mL] | MIC (HL043PA1 strain (RT5); pH 5.5) [µg/mL] | MIC (HL043PA1 strain (RT5); pH 6.5) [µg/mL] | MIC (HL043PA1 strain (RT5); pH 7.0) [µg/mL] | MIC (HL056PA1 strain (RT4)) [µg/mL] | MIC (HL043PA2 strain (RT5)) [µg/mL] | MIC (HL110PA4 strain (RT6)) [µg/mL] | MIC (HL053PA1 strain (RT4); [3]) [µg/mL] | MIC (HL053PA1 strain (RT4); [4]) [µg/mL] | MIC (HL053PA1 strain (RT4); pH 5.5) [µg/mL] | MIC (HL053PA1 strain (RT4); pH 6.5) [µg/mL] | other results
CCCCCCCCCCCCCCCCC(=O)O [Heptadecanoic acid (C17:0), Heptadecanoic acid] | >64 | >64 | >130 | >130 | >140 | >140 | 72 | 72 | 7.81 (≈ 28.9 µM) | > 1000 | 15.6 (≈ 57.7 µM) | 3.9 (≈ 14.4 µM) | 7.8 (≈ 28.8 µM) | 250 (≈ 924 µM) | 62.5 (≈ 231 µM) | > 1000 | 7.81 (≈ 28.9 µM) | > 1000 | 15.6 (≈ 57.7 µM) | 31.3 (≈ 116 µM) | Strain-selective antibacterial activity over the tested pH range, in words [1]: maintained a high strain-selective antibacterial activity between pH 5.5 and pH 7; MIC against acne bacterium strain HL043PA1 strain (RT5) (HL043PA1 strain (RT5); [5]): >1000 µg/mL; MIC (HL053PA1 strain (RT4); pH 7.0): 62.5 µg/mL (≈ 231 µM); MIC against acne bacterium strain HL053PA1 strain (RT4) (HL053PA1 strain (RT4); [5]): >1000 µg/mL; Strain-selective antibacterial activity [2]: >11
CCCCCCCCCCCCCCC(=O)O [Pentadecanoic acid (C15:0), Pentadecanoic acid] | >260 | >260 | 130 | 130 | >96 | >96 | 260 | 260 | 1.95 (≈ 8.04 µM) | 15.6 (≈ 64.4 µM) | 3.9 (≈ 16.1 µM) | 1.95 (≈ 8.04 µM) | 3.9 (≈ 16.1 µM) | 3.9 (≈ 16.1 µM) | 3.9 (≈ 16.1 µM) | 250 (≈ 1030 µM) | 1.95 (≈ 8.04 µM) | 7.81 (≈ 32.2 µM) | 3.9 (≈ 16.1 µM) | 3.9 (≈ 16.1 µM) | Strain-selective antibacterial activity ([1]; pH 5.0): >96; Strain-selective antibacterial activity at each pH ([1]; pH 5 (summary Table 10)): >96; Strain-selective antibacterial activity over the tested pH range, in words [1]: maintained a high strain-selective antibacterial activity over the entire pH range tested (pH 5 to 7); MIC (HL053PA1 strain (RT4); pH 7.0): 3.9 µg/mL (≈ 16.1 µM); Strain-selective antibacterial activity [2]: 64
CCCCCCCCCCCCCCCC(=O)O [Palmitic acid (C16:0), Palmitic acid] | >16 | >16 | >130 | >130 | >130 | >130 | 40 | 40 | 7.81 (≈ 30.5 µM) | > 1000 | 62.5 (≈ 244 µM) | 3.9 (≈ 15.2 µM) | 15.6 (≈ 60.8 µM) | 500 (≈ 1950 µM) | 62.5 (≈ 244 µM) | > 1000 | 7.81 (≈ 30.5 µM) | > 1000 | 62.5 (≈ 244 µM) | 125 (≈ 487 µM) | MIC against acne bacterium strain HL043PA1 strain (RT5) (HL043PA1 strain (RT5); [5]): >1000 µg/mL; MIC (HL053PA1 strain (RT4); pH 7.0): 62.5 µg/mL (≈ 244 µM); MIC against acne bacterium strain HL053PA1 strain (RT4) (HL053PA1 strain (RT4); [5]): >1000 µg/mL; Strain-selective antibacterial activity [2]: >9.5
CCCCCCCCCCCCCC(=O)O [Myristic acid (C14:0), Myristic acid] | >64 | >64 | 16 | 16 | >5.0 | >5.0 | 2.0 | 2.0 | 15.6 (≈ 68.3 µM) | 31.3 (≈ 137 µM) | 15.6 (≈ 68.3 µM) | 31.3 (≈ 137 µM) | 250 (≈ 1090 µM) | 125 (≈ 547 µM) | 15.6 (≈ 68.3 µM) | 250 (≈ 1090 µM) | 15.6 (≈ 68.3 µM) | 15.6 (≈ 68.3 µM) | 15.6 (≈ 68.3 µM) | 125 (≈ 547 µM) | Strain-selective antibacterial activity ([1]; pH 5.0): >48; Strain-selective antibacterial activity at each pH ([1]; pH 5 (summary Table 10)): >48; MIC (HL053PA1 strain (RT4); pH 7.0): 250 µg/mL (≈ 1090 µM); Strain-selective antibacterial activity [2]: 8.5
